pIC50: −log10 of the molar value. Bridge positions count the residues as written; N and C are the ends. Square brackets hold non-standard residues; d marks the D form. Peptide text beside a SMILES is read from it. * marks the point of attachment. ξ: configuration not given here. Phe(4-COOH) = N[C@@H](Cc1ccc(C(=O)O)cc1)C(=O)O; Bip = N[C@@H](Cc1ccc(-c2ccccc2)cc1)C(=O)O; NH(CH2)14COOH = O=C(O)CCCCCCCCCCCCCCN*; Phe(3-Me) = Cc1cccc(C[C@H](N)C(=O)O)c1; Val(3-OH) = CC(C)(O)[C@H](N)C(=O)O; hArg = N=C(N)NCCCC[C@H](N)C(=O)O; 4Pal = N[C@@H](Cc1ccncc1)C(=O)O; Cha = N[C@@H](CC1CCCCC1)C(=O)O; Cit = NC(=O)NCCC[C@H](N)C(=O)O; Thr(3ξ) = CC(O)[C@H](N)C(=O)O; dCba = N[C@H](CC1CCC1)C(=O)O; Carboxymethyl = O=C(O)C*; Orn = NCCC[C@H](N)C(=O)O; Pra = C#CC[C@H](N)C(=O)O; dDap = NC[C@@H](N)C(=O)O; Aun = NCCCCCCCCCCC(=O)O; Dab = NCC[C@H](N)C(=O)O; Dap = NC[C@H](N)C(=O)O; AEEA = NCCOCCOCC(=O)O
What follows are molecules tested against T1, PD-1/PD-L1 interaction (PE-labeled human PD-L1-Ig binding to Jurkat cell line over-expressing human PD-1) (Homo sapiens, UniProt Q15116) (assay: Jurkat-PD-1 Cell Binding High-Content Screening Assay (CBA)). Details: Jurkat cell line over-expressing human PD-1; PE-labeled PD-L1-Ig 20 nM final; read-out: Jurkat hPD1-PDL1 IC50.
T1 construct: expressed in transfected cells; host or cells: Jurkat
Assay type: cell-based
Method in brief: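 Binding of fluorescent PD-L1-Ig (20 nM final) to Jurkat-PD-1 cells was measured by automated imaging after 1 h, following a 2 h compound pre-treatment at 37° C.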

T1 sequence (Q15116 25-288): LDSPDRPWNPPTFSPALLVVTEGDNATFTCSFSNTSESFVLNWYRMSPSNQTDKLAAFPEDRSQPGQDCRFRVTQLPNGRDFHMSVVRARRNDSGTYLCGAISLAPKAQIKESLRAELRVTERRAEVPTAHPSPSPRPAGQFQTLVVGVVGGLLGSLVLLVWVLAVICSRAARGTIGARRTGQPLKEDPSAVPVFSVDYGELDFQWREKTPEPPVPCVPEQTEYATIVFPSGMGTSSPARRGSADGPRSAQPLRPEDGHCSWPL

Row | SMILES | pIC50
1 | CC(C)C[C@H]1NC(=O)[C@H](CCCN)NC(=O)[C@H](Cc2ccc(O)cc2)NC(=O)[C@H](Cc2ccc(-c3ccccc3)cc2)NC(=O)[C@H](Cc2ccc(O)cc2)NC(=O)[C@H](Cc2c[nH]c3ccccc23)NC(=O)[C@H](CC(=O)O)NC(=O)[C@H](Cc2ccc(OCC(=O)O)cc2)NC(=O)[C@H](CN)NC(=O)CSC[C@@H](C(=O)NCCOCCOCC(=O)NCCCCCCCCCCC(=O)O)NC(=O)[C@H](CCCCN)NC(=O)[C@H](Cc2ccc(O)cc2)NC(=O)[C@H](CC2CCCCC2)NC(=O)[C@H](CCN)NC1=O [Compound 2517] ({CH2CO}-[Dap]Y(Carboxymethyl)DWY[Bip]Y[Orn][dL][Dab][Cha]YKC[AEEA][Aun]-OH; thioether N-14) | 6.56
2 | Cc1cccc(C[C@@H]2NC(=O)[C@H](CC(=O)O)NC(=O)[C@H](Cc3ccc(OCC(=O)O)cc3)NC(=O)[C@H](CN)NC(=O)CSC[C@@H](C(=O)N[C@@H](CCN)C(=O)NCCCCCCCCCCC(=O)O)NC(=O)[C@@H](CCC(=O)O)NC(=O)[C@H](C(C)C)NC(=O)[C@H](CC3CCCCC3)NC(=O)[C@H](CCN)NC(=O)[C@@H](CC(C)C)NC(=O)[C@H](CCCN)NC(=O)[C@H](Cc3ccc(O)cc3)NC(=O)[C@H](Cc3ccc(-c4ccccc4)cc3)NC(=O)[C@H](C(C)C)NC2=O)c1 [Compound 2756] ({CH2CO}-[Dap]Y(Carboxymethyl)D[Phe(3-Me)]V[Bip]Y[Orn][dL][Dab][Cha]V[dE]C[Dab][Aun]-OH; thioether N-14) | 7.39
3 | C#CC[C@H](NC(=O)[C@H](CCN)NC(=O)[C@@H]1CSCC(=O)N[C@@H](Cc2ccncc2)C(=O)N[C@@H](Cc2ccc(OCC(=O)O)cc2)C(=O)N[C@@H](CC(=O)O)C(=O)N[C@@H](Cc2cccc(C)c2)C(=O)N[C@@H](Cc2ccc(OC)cc2)C(=O)N[C@@H](Cc2ccc(-c3ccccc3)cc2)C(=O)N[C@@H](Cc2ccc(OCC(=O)O)cc2)C(=O)N[C@@H](CCCN)C(=O)N[C@H](CC(C)C)C(=O)N[C@@H](CCN)C(=O)N[C@@H](CC2CCCCC2)C(=O)N[C@@H](C(C)(C)O)C(=O)N[C@@H](CO)C(=O)N1)C(=O)NCCCCCCCCCCC(=O)O [Compound 1278] ({CH2CO}-[4Pal]Y(Carboxymethyl)D[Phe(3-Me)]Y(Me)[Bip]Y(Carboxymethyl)[Orn][dL][Dab][Cha][Val(3-OH)]SC[Dab][Pra][Aun]-OH; thioether N-14) | 6.85
4 | CC(C)C[C@H]1NC(=O)[C@H](CCCN)NC(=O)[C@H](C(C)C)NC(=O)[C@H](Cc2ccc(-c3ccccc3)cc2)NC(=O)[C@H](C(C)C)NC(=O)[C@H](Cc2c[nH]c3ccccc23)NC(=O)[C@H](CC(=O)O)NC(=O)[C@H](Cc2ccc(OCC(=O)O)cc2)NC(=O)[C@H](CN)NC(=O)CSC[C@@H](C(=O)N[C@@H](CCN)C(=O)NCCCCCCCCCCC(=O)O)NC(=O)[C@@H](CCC(N)=O)NC(=O)[C@H](C(C)C)NC(=O)[C@H](CC2CCCCC2)NC(=O)[C@H](Cc2c[nH]cn2)NC1=O [Compound 2795] ({CH2CO}-[Dap]Y(Carboxymethyl)DWV[Bip]V[Orn][dL]H[Cha]V[dQ]C[Dab][Aun]-OH; thioether N-14) | 7.20
5 | CC(C)C[C@H]1NC(=O)[C@H](CCCN)NC(=O)[C@H](C(C)C)NC(=O)[C@H](Cc2ccc(-c3ccccc3)cc2)NC(=O)[C@H](C(C)C)NC(=O)[C@H](Cc2c[nH]c3ccccc23)NC(=O)[C@H](CC(=O)O)NC(=O)[C@H](Cc2ccc(C(=O)O)cc2)NC(=O)[C@H](CCCCNC(=N)N)NC(=O)CSC[C@@H](C(=O)N[C@@H](C)C(=O)N[C@@H](CCCCN)C(=O)NCCCCCCCCCCCCCCC(=O)O)NC(=O)[C@H](C(C)O)NC(=O)[C@H](C(C)C)NC(=O)[C@H](CC2CCCCC2)NC(=O)[C@H](CCN)NC1=O (stereo partly drawn) [Compound 3016] ({CH2CO}-[hArg][Phe(4-COOH)]DWV[Bip]V[Orn][dL][Dab][Cha]V[Thr(3ξ)]CAK-{NH(CH2)14COOH}; thioether N-14) | 7.02

Molecules with a higher pIC50, results first:

Row | pIC50 | SMILES
6 | 7.72 | Cc1cccc(C[C@@H]2NC(=O)[C@H](CC(=O)O)NC(=O)[C@H](Cc3ccc(OCC(=O)O)cc3)NC(=O)[C@H](CCCNC(=N)N)NC(=O)CSC[C@@H](C(=O)N[C@@H](CCCN)C(=O)NCCCCCCCCCCC(=O)O)NC(=O)[C@H]([C@@H](C)O)NC(=O)[C@H](C(C)C)NC(=O)[C@H](CC3CCCCC3)NC(=O)[C@H](CCN)NC(=O)[C@@H](CC(C)C)NC(=O)[C@H](CCCN)NC(=O)[C@H](CCCNC(N)=O)NC(=O)[C@H](Cc3ccc(-c4ccccc4)cc3)NC(=O)[C@H](Cc3ccc(O)cc3)NC2=O)c1 [Compound 2835] ({CH2CO}-RY(Carboxymethyl)D[Phe(3-Me)]Y[Bip][Cit][Orn][dL][Dab][Cha]VTC[Orn][Aun]-OH; thioether N-14)
7 | 7.54 | CC(C)C[C@H]1NC(=O)[C@H](CCCN)NC(=O)[C@H](C(C)C)NC(=O)[C@H](Cc2ccc(-c3ccccc3)cc2)NC(=O)[C@H](C(C)C)NC(=O)[C@H](Cc2c[nH]c3ccccc23)NC(=O)[C@H](CC(=O)O)NC(=O)[C@H](Cc2ccc(OCC(=O)O)cc2)NC(=O)[C@H](CN)NC(=O)CSC[C@@H](C(=O)NCCOCCOCC(=O)N[C@H](CN)C(=O)NCCCCCCCCCCC(=O)O)NC(=O)[C@H]([C@@H](C)O)NC(=O)[C@H](C(C)C)NC(=O)[C@H](CC2CCCCC2)NC(=O)[C@H](Cc2cnc[nH]2)NC1=O [Compound 1128] ({CH2CO}-[Dap]Y(Carboxymethyl)DWV[Bip]V[Orn][dL]H[Cha]VTC[AEEA][dDap][Aun]-OH; thioether N-14)
8 | 7.78 | CSCC[C@@H]1NC(=O)[C@H](Cc2ccc(-c3ccccc3)cc2)NC(=O)[C@H](C(C)C)NC(=O)[C@H](Cc2cccc(C)c2)NC(=O)[C@H](CC(=O)O)NC(=O)[C@H](Cc2ccc(OCC(=O)O)cc2)NC(=O)[C@H](CCCNC(=N)N)NC(=O)CSC[C@@H](C(=O)N[C@@H](CCN)C(=O)NCCCCCCCCCCC(=O)O)NC(=O)[C@H](CCC(N)=O)NC(=O)[C@H](C(C)C)NC(=O)[C@H](CC2CCCCC2)NC(=O)[C@H](CCN)NC(=O)[C@@H](CC(C)C)NC(=O)[C@H](CCCN)NC1=O [Compound 3385] ({CH2CO}-RY(Carboxymethyl)D[Phe(3-Me)]V[Bip]M[Orn][dL][Dab][Cha]VQC[Dab][Aun]-OH; thioether N-14)
9 | 7.90 | Cc1cccc(C[C@@H]2NC(=O)[C@H](CC(=O)O)NC(=O)[C@H](Cc3ccc(C(=O)O)cc3)NC(=O)[C@H](Cc3ccncc3)NC(=O)CSC[C@@H](C(=O)N[C@@H](CCN)C(=O)NCCCCCCCCCCC(=O)O)NC(=O)[C@H]([C@@H](C)O)NC(=O)[C@H](C(C)C)NC(=O)[C@H](CC(C)C)NC(=O)[C@H](CCN)NC(=O)[C@@H](CC(C)C)NC(=O)[C@H](CCCN)NC(=O)[C@H](Cc3ccc(OCC(=O)O)cc3)NC(=O)[C@H](Cc3ccc(-c4ccccc4)cc3)NC(=O)[C@H](Cc3ccc(OCC(=O)O)cc3)NC2=O)c1 [Compound 2143] ({CH2CO}-[4Pal][Phe(4-COOH)]D[Phe(3-Me)]Y(Carboxymethyl)[Bip]Y(Carboxymethyl)[Orn][dL][Dab]LVTC[Dab][Aun]-OH; thioether N-14)
10 | 7.78 | CC(C)C[C@H]1NC(=O)[C@H](CCCN)NC(=O)[C@H](CCCNC(N)=O)NC(=O)[C@H](Cc2ccc(-c3ccccc3)cc2)NC(=O)[C@H](C(C)C)NC(=O)[C@H](Cc2c[nH]c3ccccc23)NC(=O)[C@H](CC(=O)O)NC(=O)[C@H](Cc2ccc(OCC(=O)O)cc2)NC(=O)[C@H](CN)NC(=O)CSC[C@@H](C(=O)NCCOCCOCC(=O)N[C@@H](CCN)C(=O)NCCCCCCCCCCC(=O)O)NC(=O)[C@H](CCCCN)NC(=O)[C@H](C(C)C)NC(=O)[C@H](CC2CCCCC2)NC(=O)[C@H](CCN)NC1=O [Compound 2625] ({CH2CO}-[Dap]Y(Carboxymethyl)DWV[Bip][Cit][Orn][dL][Dab][Cha]VKC[AEEA][Dab][Aun]-OH; thioether N-14)
11 | 7.82 | Cc1cccc(C[C@@H]2NC(=O)[C@H](CC(=O)O)NC(=O)[C@H](Cc3ccc(OCC(=O)O)cc3)NC(=O)[C@H](CN)NC(=O)CSC[C@@H](C(=O)N[C@@H](CCN)C(=O)NCCCCCCCCCCC(=O)O)NC(=O)[C@H](CCCCN)NC(=O)[C@H](C(C)C)NC(=O)[C@H](CC3CCCCC3)NC(=O)[C@H](CCN)NC(=O)[C@@H](CC3CCC3)NC(=O)[C@H](CCCN)NC(=O)[C@H](C(C)C)NC(=O)[C@H](Cc3ccc(-c4ccccc4)cc3)NC(=O)[C@H](C(C)C)NC2=O)c1 [Compound 2027] ({CH2CO}-[Dap]Y(Carboxymethyl)D[Phe(3-Me)]V[Bip]V[Orn][dCba][Dab][Cha]VKC[Dab][Aun]-OH; thioether N-14)
12 | 7.67 | Cc1cccc(C[C@@H]2NC(=O)[C@H](CC(=O)O)NC(=O)[C@H](Cc3ccc(OCC(=O)O)cc3)NC(=O)[C@H](C(C)C)NC(=O)CSC[C@@H](C(=O)N[C@@H](CCCCN)C(=O)NCCCCCCCCCCC(=O)O)NC(=O)[C@H](C(C)O)NC(=O)[C@H](C(C)C)NC(=O)[C@H](CC3CCCCC3)NC(=O)[C@H](CCN)NC(=O)[C@@H](CC(C)C)NC(=O)[C@H](CCCN)NC(=O)[C@H](C(C)C)NC(=O)[C@H](Cc3ccc(-c4ccccc4)cc3)NC(=O)[C@H](C(C)C)NC2=O)c1 (stereo partly drawn) [Compound 3471] ({CH2CO}-VY(Carboxymethyl)D[Phe(3-Me)]V[Bip]V[Orn][dL][Dab][Cha]V[Thr(3ξ)]CK[Aun]-OH; thioether N-14)
13 | 7.52 | Cc1cccc(C[C@@H]2NC(=O)[C@H](CC(=O)O)NC(=O)[C@H](Cc3ccc(OCC(=O)O)cc3)NC(=O)[C@H](CCCNC(=N)N)NC(=O)CSC[C@@H](C(=O)N[C@@H](CCCCN)C(=O)NCCCCCCCCCCC(=O)O)NC(=O)[C@H](CN)NC(=O)[C@H](C(C)(C)O)NC(=O)[C@H](CC3CCCCC3)NC(=O)[C@H](CCN)NC(=O)[C@@H](CC(C)C)NC(=O)[C@H](CCCN)NC(=O)[C@H](Cc3ccc(OCC(=O)O)cc3)NC(=O)[C@H](Cc3ccc(-c4ccccc4)cc3)NC(=O)[C@H](Cc3ccc(OCC(=O)O)cc3)NC2=O)c1 [Compound 2850] ({CH2CO}-RY(Carboxymethyl)D[Phe(3-Me)]Y(Carboxymethyl)[Bip]Y(Carboxymethyl)[Orn][dL][Dab][Cha][Val(3-OH)][Dap]CK[Aun]-OH; thioether N-14)

— US20260022142A1, “MACROCYCLIC IMMUNOMODULATORS” (Bristol-Myers Squibb Company, priority 2022, published 2026)
